One test deals with DLD-1 BRCA2−/− cells. In words: Homologous recombination synthetic lethal inhibition of proliferation, DLD-1 BRCA2-/- (Cell Titre Glo 3D). The test is classed as cell-based. The conditions noted are these: for IC50: Homo sapiens. The gist of the method:
(§1)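 Proliferation of HR-deficient DLD-1 BRCA2−/− versus isogenic wild-type DLD-1 was measured by ATP luminescence (CellTiter-Glo 3D). Compound exposure lasted 12 or 7 days, respectively, with a fresh dose on day 6. IC50 was the concentration halving maximal signal.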

A further test deals with DLD-1 cells. In words: Inhibition of proliferation, DLD-1 BRCA2 wt control (Cell Titre Glo 3D). The test is classed as cell-based. To be noted: for IC50: Homo sapiens. The gist of the method: as §1
[1] abbreviates: DLD-1, 288 h, DLD-1 BRCA2−/− cells, 12 days, read-out: POLQ PD Prolif Lumin BRCA2 −/− mean pIC50 (converted).
The mark [2] stands for this setting: DLD-1, 168 h, DLD-1 BRCA2 wt cells, 7 days, read-out: POLQ PD Prolif Lumin DLD1 mean pIC50 (converted).
The mark [3] stands for this setting: DLD-1, first proliferation column (c5), DLD-1 BRCA2-/-, read-out: POLQ PD Prolif Lumin (converted).
Setting [4] is: DLD-1, second proliferation column (c6), DLD-1 BRCA2 wt control, read-out: POLQ PD Prolif Lumin (converted).
Setting [5] is: DLD-1, 288 h, DLD-1 BRCA2−/−, 12 days, Cell Titre Glo 3D, read-out: POLQ PD Prolif Lumin BRCA2 −/− Mean pIC50 (converted).
[6] abbreviates: DLD-1, 168 h, DLD-1 (BRCA2 wt control), 7 days, Cell Titre Glo 3D, read-out: POLQ PD Prolif Lumin DLD1 Mean pIC50 (converted).
The mark [7] stands for this setting: DLD-1, DLD-1 BRCA2 −/− cells, mean, read-out: POLQ PD Prolif Lumin BRCA2 −/− mean pIC50 (converted).
Setting [8] is: DLD-1, DLD1 BRCA2 wt cells, mean, read-out: POLQ PD Prolif Lumin DLD1 mean PIC50 (converted).
The mark [9] stands for this setting: DLD-1, DLD-1 BRCA2-/- proliferation, column head only partly shown, read-out: POLQ PD Prolif Lumin (converted).
Where [10] appears, read: DLD-1, DLD-1 BRCA2 wt control proliferation, column head only partly shown, read-out: POLQ PD Prolif Lumin (converted).

Where two headings read alike, the source gives them in different places.

`COc1ccc(Cl)cc1Cn1c(-c2cccc(OCC[C@@H](C)C(=O)O)c2Cl)nc2c(OC3(C)CC3)ncnc21` [Example U75, (R)-4-(2-chloro-3-(9-(5-chloro-2-methoxybenzyl)-6-(1-methylcyclopropoxy)-9H-purin-8-yl)phenoxy)-2-methylbutanoic acid]: the IC50 was 2 nM in the test with DLD-1 BRCA2−/− cells (DLD-1, DLD-1 BRCA2 −/−, mean, read-out: POLQ PD Prolif Lumin BRCA2 −/− mean pIC50 (converted)) and above 10000 nM with DLD-1 cells (DLD-1, DLD1 BRCA2 wt, mean, read-out: POLQ PD Prolif Lumin DLD1 mean pIC50 (converted)).

As to `Cc1cnc(Cn2c(-c3ccc(OC4CCCNCC4)cc3Cl)nc3c(OC4(C)CC4)ncnc32)s1` (single isomer, unassigned) [Example T243, 2-((8-(4-(azepan-4-yloxy)-2-chlorophenyl)-6-(1-methylcyclopropoxy)-9H-purin-9-yl)methyl)-5-methylthiazole], the “POLQ PD Prolif Lumin” value in the test on DLD-1 BRCA2−/− cells (DLD-1 BRCA2-/- proliferation, column head only partly shown) was 6.3; with DLD-1 cells (DLD-1 BRCA2 wt control proliferation, column head only partly shown), below 5.0.

Regarding `CC1(Oc2ncnc3c2nc(-c2ccc(O[C@H]4CNC[C@H]4F)cc2Cl)n3Cc2ccccc2)CC1` [Example D31, 9-benzyl-8-(2-chloro-4-(((3S,4R)-4-fluoropyrrolidin-3-yl)oxy)phenyl)-6-(1-methylcyclopropoxy)-9H-purine], the IC50 in the test with DLD-1 BRCA2−/− cells (setting [1]) is 200 nM; in the test with DLD-1 cells (setting [2]), 7940 nM.

In the case of `Cc1ccnc(Cn2c(-c3ccc(CC(=O)N4CCNCC4)cc3Cl)nc3c(OC4(C)CC4)ncnc32)c1` [Example T495, 2-(3-chloro-4-(6-(1-methylcyclopropoxy)-9-((4-methylpyridin-2-yl)methyl)-9H-purin-8-yl)phenyl)-1-(piperazin-1-yl)ethan-1-one], the IC50 is 794 nM in the test with DLD-1 BRCA2−/− cells (setting [3]) and above 10000 nM with DLD-1 cells (setting [4]).

Turning to `Cc1ccnc(Cn2c(-c3ccc(OC4CNC(=O)OC4)cc3Cl)nc3c(OC4(C)CC4)ncnc32)c1` (racemic) [Example T187, 5-(3-chloro-4-(6-(1-methylcyclopropoxy)-9-((4-methylpyridin-2-yl)methyl)-9H-purin-8-yl)phenoxy)-1,3-oxazinan-2-one], the figures for the IC50 in the test with DLD-1 BRCA2−/− cells (setting [3]) and in the test with DLD-1 cells (setting [4]) were 1000 nM and above 10000 nM, respectively.

For `Cc1ccnc(Cn2c(-c3cccc(OCCCN4CC[C@@H](O)C4)c3Cl)nc3c(OC4(C)CC4)ncnc32)c1` [Example T593, (R)-1-(3-(2-chloro-3-(6-(1-methylcyclopropoxy)-9-((4-methylpyridin-2-yl)methyl)-9H-purin-8-yl)phenoxy)propyl)pyrrolidin-3-ol], the IC50 in the test with DLD-1 BRCA2−/− cells (DLD-1, first proliferation column, DLD-1 BRCA2-/-, read-out: POLQ PD Prolif Lumin (converted)) was 251 nM; with DLD-1 cells (DLD-1, second proliferation column, DLD-1 BRCA2 wt control, read-out: POLQ PD Prolif Lumin (converted)) it was above 10000 nM.

For the molecule `Cc1ccnc(Cn2c(-c3ccc(OC4CN(C(=O)CO)C4)cc3Cl)nc3c(OC4(C)CC4)ncnc32)c1` [Example 39, 1-(3-(3-Chloro-4-(6-(1-methylcyclopropoxy)-9-((4-methylpyridin-2-yl)methyl)-9H-purin-8-yl)phenoxy)azetidin-1-yl)-2-hydroxyethan-1-one], the IC50 in the test with DLD-1 BRCA2−/− cells (setting [5]) was 158 nM; in the test on DLD-1 cells (setting [6]) it was above 10000 nM.

`CC1(Oc2ncnc3c2nc(-c2cccc(/C=C/C(=O)O)c2Cl)n3Cc2cccc(Cl)c2)CC1` [Example T80, (E)-3-(2-chloro-3-(9-(3-chlorobenzyl)-6-(1-methylcyclopropoxy)-9H-purin-8-yl)phenyl)acrylic acid]: the IC50 was 100 nM in the test with DLD-1 BRCA2−/− cells (setting [7]) and above 10000 nM with DLD-1 cells (setting [8]).

In the case of `CC(C)Oc1ccc2c(c1)nc(-c1ccc(OCCCN)cc1Cl)n2Cc1ccccc1` [Example 3, 3-(4-(1-Benzyl-5-isopropoxy-1H-benzo[d]imidazol-2-yl)-3-chlorophenoxy)propan-1-amine], the IC50 with DLD-1 BRCA2−/− cells (setting [1]) is 1000 nM; in the test with DLD-1 cells (setting [2]), 1580 nM.

Consider `CC1(Oc2ncnc3c2nc(-c2ccc(C(N)=O)cc2Cl)n3Cc2ccccc2)CC1` [Example N4, 4-(9-benzyl-6-(1-methylcyclopropoxy)-9H-purin-8-yl)-3-chlorobenzamide], for which the IC50 in the test on DLD-1 BRCA2−/− cells (setting [1]) is 200 nM; with DLD-1 cells (setting [2]) it was above 10000 nM.

In the case of `Cc1ncc(Cn2c(-c3ccc(OCCN4CCNCC4)cc3Cl)nc3c(OC4(C)CC4)ncnc32)s1` [Example T249, 5-((8-(2-chloro-4-(2-(piperazin-1-yl)ethoxy)phenyl)-6-(1-methylcyclopropoxy)-9H-purin-9-yl)methyl)-2-methylthiazole], the IC50 in the test with DLD-1 BRCA2−/− cells (setting [9]) was 3980 nM; in the test with DLD-1 cells (setting [10]) it was above 10000 nM.

On to `CC1(Oc2ncnc3c2nc(-c2ccc(OCCN4C[C@@H]5CC[C@H]4CN5)cc2Cl)n3Cc2ccccc2)CC1` [Example R21, (1S,4S)-2-(2-(4-(9-benzyl-6-(1-methylcyclopropoxy)-9H-purin-8-yl)-3-chlorophenoxy)ethyl)-2,5-diazabicyclo[2.2.2]octane], for which the results for the IC50 in the test with DLD-1 BRCA2−/− cells (setting [1]) and in the test on DLD-1 cells (setting [2]) were 316 nM and 1580 nM, respectively.

Take `CC(CCOc1ccc(-c2nc3c(OC4(C)CC4)ncnc3n2Cc2cccc(Br)c2)c(Cl)c1)C(=O)O` (racemic) [Example T279, 4-(4-(9-(3-bromobenzyl)-6-(1-methylcyclopropoxy)-9H-purin-8-yl)-3-chlorophenoxy)-2-methylbutanoic acid]: the figures for the IC50 in the test with DLD-1 BRCA2−/− cells (setting [9]) and in the test on DLD-1 cells (setting [10]) were 200 nM and above 10000 nM, respectively.

Consider `Cc1cnc(Cn2c(-c3ccc(OCCCN(C)C)cc3Cl)nc3c(OC4(C)CC4)ncnc32)s1` [Example T148, 3-(3-chloro-4-(6-(1-methylcyclopropoxy)-9-((5-methylthiazol-2-yl)methyl)-9H-purin-8-yl)phenoxy)-N,N-dimethylpropan-1-amine], for which the values for the IC50 with DLD-1 BRCA2−/− cells (setting [3]) and with DLD-1 cells (setting [4]) were 316 nM and above 7940 nM, respectively.

For `Cc1cccc(C)c1Cn1c(-c2ccc(OCCC(C)C(=O)O)cc2Cl)nc2c(OC3(C)CC3)ncnc21` (racemic) [Example T571, 4-(3-chloro-4-(9-(2,6-dimethylbenzyl)-6-(1-methylcyclopropoxy)-9H-purin-8-yl)phenoxy)-2-methylbutanoic acid], the IC50 in the test with DLD-1 BRCA2−/− cells (setting [3]) is 1260 nM; in the test with DLD-1 cells (setting [4]), above 10000 nM.

On to `COc1ccc(Cl)cc1Cn1c(-c2cccc(OC[C@H](C)CC(=O)O)c2Cl)nc2c(OC3(C)CC3)ncnc21` (single isomer, unassigned; isomer 2) [Example 51, 4-(2-Chloro-3-(9-(5-chloro-2-methoxybenzyl)-6-(1-methylcyclopropoxy)-9H-purin-8-yl)phenoxy)-3-methylbutanoic acid (isomer 2)], for which the IC50 was 7.94 nM in the test with DLD-1 BRCA2−/− cells (setting [5]) and above 10000 nM with DLD-1 cells (setting [6]).

With `CC1(Oc2ncnc3c2nc(-c2ccc(OCCN4CCNCC4)cc2Cl)n3Cc2ncsc2Cl)CC1` [Example T145, 5-chloro-4-((8-(2-chloro-4-(2-(piperazin-1-yl)ethoxy)phenyl)-6-(1-methylcyclopropoxy)-9H-purin-9-yl)methyl)thiazole], the results for the IC50 in the test on DLD-1 BRCA2−/− cells (setting [3]) and with DLD-1 cells (setting [4]) were 2000 nM and above 10000 nM, respectively.

Turning to `CC1(Oc2ncnc3c2nc(-c2ccc(OC4CNC4)cc2Cl)n3Cc2cc(Cl)ccn2)CC1` [Example T50, 8-(4-(azetidin-3-yloxy)-2-chlorophenyl)-9-((4-chloropyridin-2-yl)methyl)-6-(1-methylcyclopropoxy)-9H-purine], the values for the IC50 with DLD-1 BRCA2−/− cells (setting [7]) and in the test with DLD-1 cells (setting [8]) were 251 nM and 5010 nM, respectively.

Consider `CN1CCCC1CCOc1ccc(-c2nc3c(OC4(C)CC4)ncnc3n2Cc2ccccc2)c(Cl)c1` (single isomer, unassigned) [Example D3, 9-benzyl-8-(2-chloro-4-(2-(1-methylpyrrolidin-2-yl)ethoxy)phenyl)-6-(1-methylcyclopropoxy)-9H-purine], for which, in the test with DLD-1 BRCA2−/− cells (setting [1]), the IC50 is 63.1 nM. For the same molecule, in the test on DLD-1 cells (DLD-1 BRCA2 wt cells, 7 days), the “POLQ PD Prolif Lumin DLD1 mean pIC50” value worked out at 5.7.

Turning to `CC1(Oc2ncnc3c2nc(-c2ccc(OCCN4CCNCC4)cc2C(F)(F)F)n3Cc2cc(Cl)ccn2)CC1` [Example T453, 9-((4-chloropyridin-2-yl)methyl)-6-(1-methylcyclopropoxy)-8-(4-(2-(piperazin-1-yl)ethoxy)-2-(trifluoromethyl)phenyl)-9H-purine], the IC50 in the test on DLD-1 BRCA2−/− cells (DLD-1, proliferation, luminescence, taken as DLD-1 BRCA2-/-, read-out: POLQ PD Prolif Lumin (converted)) was 251 nM; in the test with DLD-1 cells (DLD-1, proliferation, luminescence, second Prolif column (c6), taken as DLD-1 BRCA2 wt control, read-out: POLQ PD Prolif Lumin (converted)), above 10000 nM.

Consider `CC1(Oc2ncnc3c2nc(-c2ccc(/C=C/C(=O)O)cc2Cl)n3Cc2ccccc2)CC1` [Example M4, (E)-3-(4-(9-benzyl-6-(1-methylcyclopropoxy)-9H-purin-8-yl)-3-chlorophenyl)acrylic acid], for which the figures for the IC50 in the test with DLD-1 BRCA2−/− cells (setting [1]) and with DLD-1 cells (setting [2]) were 631 nM and above 10000 nM, respectively.

`Cc1cc(OCCCN2CCNCC2)ncc1-c1nc2c(OC3(C)CC3)ncnc2n1Cc1ccccc1` [Example G1, 9-benzyl-8-(4-methyl-6-(3-(piperazin-1-yl)propoxy)pyridin-3-yl)-6-(1-methylcyclopropoxy)-9H-purine]: the IC50 in the test on DLD-1 BRCA2−/− cells (setting [1]) is 501 nM; in the test with DLD-1 cells (setting [2]) it was 6310 nM.

These data come from patent US20250195530A1, “POLQ INHIBITORS” (ASTRAZENECA AB, priority 2022, published 2025).
